Data as given in patent US4816452A, “Aminothiazole substituted penicillins and antibacterial compositions thereof” (Beecham Group P.L.C., priority 1985, dated 1989).
In brackets after ≈: the same amount, converted by molar mass.

Tests used:
[1] = Blood concentration in mice after subcutaneous administration; format: in vivo; settings: mouse, sc, 50 mg/kg
Description: The compound of example 4 was administered to mice (5) by the subcutaneous route at a dosage of 50 mg/kg and the blood concentration determined.

S. aureus Smith [2] = assay: M.I.C, S. aureus Smith; format: cell-based; settings: Staphylococcus aureus, in vivo
H. influenzae NEMCl = assay: In vitro MIC, H. influenzae NEMCl; format: cell-based; settings: Haemophilus influenzae
Source text: (§1) |In Vitro Biological Data.

S. epidermidis PHLN20 = assay: In vitro MIC, S. epidermidis PHLN20; format: cell-based; settings: Staphylococcus epidermidis
Source text: as §1

S. aureus MB9 [3] = assay: In vivo experimental infection in mice, S. aureus MB9; settings: Staphylococcus aureus, sc, subcutaneous, dosed at 1 and 5 hours after infection, 5 mice/group, read-out: Total S.C. CD50
Description: (§2) In Vivo Biological Data.
(§3) The compound of example 4 was tested in vivo in mice
(§4) against experimental infections. The results of these
(§5) *dosed at 1 and 5 hours after infection. 5 mice/group.

B. catarrhalis Ravasio = assay: In vitro MIC, B. catarrhalis Ravasio; format: cell-based; settings: Moraxella catarrhalis
Source text: as §1

S. pneumoniae 1761 = assay: In vitro MIC, S. pneumoniae 1761; format: cell-based; settings: Streptococcus pneumoniae
Source text: as §1

S. aureus Smith [4] = assay: In vivo experimental infection in mice, S. aureus Smith; settings: Staphylococcus aureus, sc, subcutaneous, dosed at 1 and 5 hours after infection, 5 mice/group, read-out: Total S.C. CD50
Description: as §2, §3, §4, §5

S. aureus MB9 [5] = assay: In vitro MIC, S. aureus MB9; format: cell-based; settings: for MIC: Staphylococcus aureus; for (M.I.C): in vivo
Source text: as §1

H. influenzae Q1 = assay: In vitro MIC, H. influenzae Q1; format: cell-based; settings: Haemophilus influenzae
Source text: as §1

S. aureus Oxford = assay: In vitro MIC, S. aureus Oxford; format: cell-based; settings: Staphylococcus aureus
Source text: as §1

S. aureus V573 = assay: In vitro MIC, S. aureus V573 (methicillin resistant strain); format: cell-based; settings: Staphylococcus aureus
Source text: In Vitro Biological Data.
(+ = methicillin resistant strain)

Row | Structure (SMILES) | AUC [1] | concentration at 5 min ([1]; 5 mins) | concentration at 10 min ([1]; 10 mins) | concentration at 20 min ([1]; 20 mins) | concentration at 0.5 h ([1]; 30 mins) | concentration at 1 h ([1]; 60 mins) | concentration at 2 h ([1]; 120 mins) | MIC (S. aureus Smith [2]) | MIC (H. influenzae NEMCl) | MIC (S. epidermidis PHLN20) | ED50 (S. aureus MB9 [3]) | MIC (B. catarrhalis Ravasio) | MIC (S. pneumoniae 1761) | ED50 (S. aureus Smith [4]) | MIC (S. aureus MB9 [5]) | (M.I.C) (S. aureus MB9 [5]) | MIC (H. influenzae Q1) | MIC (S. aureus Oxford) | MIC (S. aureus V573)
1 | CC1(C)S[C@@H]2[C@H](NC(=O)/C(=N\OC3CCCCC3)c3csc(N)n3)C(=O)N2[C@H]1C(=O)O [Example 4, Sodium 6β-[2-(2-aminothiazol-4-yl)-(Z)-2-cyclohexyloxyiminoacetamido]penicillanate] | 9520 ng·h/mL | 31000 ng/mL | 21800 ng/mL | 14300 ng/mL | 7700 ng/mL | 900 ng/mL | < 90 ng/mL | 0.12 µg/mL | 0.5 µg/mL | 0.25 µg/mL | 4 mg/kg | 0.25 µg/mL | < 0.03 µg/mL | 1.5 mg/kg | 0.5 µg/mL | 0.5 µg/mL | 0.12 µg/mL | 0.12 µg/mL | 4 µg/mL
2 | Cc1onc(-c2c(F)cccc2Cl)c1C(=O)N[C@@H]1C(=O)N2[C@@H]1SC(C)(C)[C@@H]2C(=O)O [flucloxacillin, reference compound] |  |  |  |  |  |  |  | 0.25 µg/mL (≈ 0.551 µM) | 16 µg/mL (≈ 35.3 µM) | 0.25 µg/mL (≈ 0.551 µM) | 17 mg/kg | 16 µg/mL (≈ 35.3 µM) | 0.25 µg/mL (≈ 0.551 µM) | 6 mg/kg | 0.5 µg/mL (≈ 1.1 µM) | 0.5 µg/mL | 4 µg/mL (≈ 8.81 µM) | 0.25 µg/mL (≈ 0.551 µM) | 32 µg/mL (≈ 70.5 µM)
